According to patent publication US10544112B2, “Identification of ebsulfur analogues with broad-spectrum antifungal activity” (priority 2017, dated 2020):
Read-outs that look alike come from different tables or passages of the source.

Key:
[1] = system: C. albicans ATCC 10231 (strain A); assay: ROS production assay (DCFH-DA); type: cell-based, Candida albicans; conditions: 1× and 2× MIC (H2O2 1 mM), 1-h treatment
Method: ROS production assay was performed as previously described with minor modifications. […] Once entering the cells, the DCFH-DA probe is first hydrolyzed to the non-fluorescent 2′,7′-dichlorodihydrofluorescein (DCFH) by cellular esterases. […] A colony of C. albicans ATCC 10231 (strain A) was used to inoculate 5 mL of PDB in a Falcon tube and grown overnight at 35° C. at 200 rpm.
Thus, whether the compounds of the invention would also induce ROS against C. albicans was studied. […] 2′,7′-dichlorodihydrofluorescin diacetate (DCFH-DA) was then used to detect and visualize ROS production (FIG. 5). As a positive control, cells were treated with H2O2, which is an inducer of hydroxyl radical formation.

[2] = system: Murine red blood cells (mRBCs); assay: Hemolytic assay
Method: Hemolytic activity was determined as previously described with minor modifications (FIG. 3). […] Compounds were serially diluted in Eppendorf tubes containing H2O (100 μL). […] The tubes were then incubated for 1 h at 37° C. Tubes containing dd H2O (200 μL) and triton X-100® (1% v/v, 2 μt) served as negative (blank) and positive (100%) control, respectively. The percent hemolysis was calculated using the following equation: % hemolysis=[(absorbance of sample)−(absorbance of blank)]×100/(absorbance of positive control). Fifty percent hemolysis (HC50) values were defined as the concentrations of compounds required to lyse 50% of the mRBCs.

[3] = system: C. albicans ATCC 64124 (strain B); type: cell-based, Candida albicans
Method: The efficiency of the compounds to kill C. albicans ATCC 64124 (strain B) was monitored using a previously published protocol. The cell suspensions were prepared to achieve an inoculum of approximately 1-4×10^5 CFU/mL in RPMI 1640 medium at 35° C. […] After fungal cell addition, at 0, 3, 6, 9, 12, and 24 h, the tubes were vortexed and 100 μL aliquots were removed from each solution, spread onto PDA plates, and incubated at 35° C. Colony counts were determined after 24 h of incubation. The experiments were performed in duplicate (FIG. 2).
Time-kill assays with ebsulfur (2a) and analogue 3a (FIG. 2) were performed to determine the rate of fungicidal activity of the compounds if the invention.

CCCCCn1sc2ccccc2c1=O [Compound 3a]
ROS induction (DCFH-DA fluorescence) [1]: highly fluorescent
fold MIC lower than the hemolytic concentration ([2]; Aspergillus strains): ≥ 195 fold
fold MIC lower than the hemolytic concentration ([2]; Candida strains): at least 5 fold
hemolytic concentration ([2]; mRBCs, 1 h at 37° C.): approximately 3.9 μg/mL
fungicidal or fungistatic effect [3]: fungistatic
reduction of fungal cells [3]: 4 log
fungicidal or fungistatic effect ([3]; 1× MIC): fungistatic
fungicidal or fungistatic effect ([3]; 2× MIC): fungistatic
